Reference: ChEMBL document CHEMBL3396994, “Novel 4-aryl-pyrido[1,2-c]pyrimidines with dual SSRI and 5-HT1A activity. Part 4” (Eur J Med Chem, 2015)

What was measured:
[1] = target: Sodium-dependent serotonin transporter (Rattus norvegicus, UniProt P31652); assay: Displacement of [3H]citalopram from rat brain cerebral cortex SERT by liquid scintillation counting analysis; format: tissue-based
[2] = target: T1, 5-hydroxytryptamine receptor 1A (Rattus norvegicus, UniProt P19327); assay: Displacement of [3H]8-OH-DPAT from rat brain hippocampus 5-HT1A receptor by radioligand binding assay
T1 sequence (P19327 whole entry): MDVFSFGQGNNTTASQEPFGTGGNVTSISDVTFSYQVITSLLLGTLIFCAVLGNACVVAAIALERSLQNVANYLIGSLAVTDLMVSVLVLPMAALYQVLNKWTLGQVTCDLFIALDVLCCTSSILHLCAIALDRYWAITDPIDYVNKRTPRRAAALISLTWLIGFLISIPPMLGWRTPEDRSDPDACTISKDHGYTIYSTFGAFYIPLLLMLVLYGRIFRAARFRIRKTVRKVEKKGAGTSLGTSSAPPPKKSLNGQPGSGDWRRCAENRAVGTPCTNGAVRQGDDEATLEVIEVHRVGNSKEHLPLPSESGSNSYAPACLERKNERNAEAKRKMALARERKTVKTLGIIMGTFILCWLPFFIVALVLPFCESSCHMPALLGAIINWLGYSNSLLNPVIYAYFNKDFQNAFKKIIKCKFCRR

[3] = Half life in human liver microsomes at 10 uM by LC/MS analysis; format: ADME
[4] = Metabolic stability in human liver microsomes assessed as compound remaining at 10 uM after 60 mins by LC/MS analysis; format: ADME; details: read-out: Stability

Sodium-dependent serotonin transporter, sequence (P31652 whole entry): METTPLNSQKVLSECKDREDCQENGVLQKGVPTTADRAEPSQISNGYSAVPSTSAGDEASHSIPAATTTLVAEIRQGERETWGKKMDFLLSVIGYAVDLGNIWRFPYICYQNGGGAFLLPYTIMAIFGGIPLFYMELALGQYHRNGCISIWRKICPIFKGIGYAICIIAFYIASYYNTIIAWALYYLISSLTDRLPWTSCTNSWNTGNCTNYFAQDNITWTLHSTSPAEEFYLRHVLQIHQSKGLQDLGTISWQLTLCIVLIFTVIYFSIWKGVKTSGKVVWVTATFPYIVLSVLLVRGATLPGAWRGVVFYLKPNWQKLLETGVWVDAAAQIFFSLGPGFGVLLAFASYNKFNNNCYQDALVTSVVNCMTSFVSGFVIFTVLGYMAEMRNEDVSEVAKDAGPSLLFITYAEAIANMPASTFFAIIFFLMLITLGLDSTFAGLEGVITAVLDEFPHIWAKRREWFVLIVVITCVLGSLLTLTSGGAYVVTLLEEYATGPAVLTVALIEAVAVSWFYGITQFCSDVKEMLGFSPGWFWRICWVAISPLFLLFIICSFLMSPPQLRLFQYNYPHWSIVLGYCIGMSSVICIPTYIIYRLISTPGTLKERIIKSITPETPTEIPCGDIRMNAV

| Ki [1] | Ki [2] | half-life at 10 µM [3] | remaining at 1 h, 10 µM [4] | SMILES |
| --- | --- | --- | --- | --- |
| 19.4 nM | 12.8 nM | – | – | O=c1c(-c2ccc(F)cc2)c2ccccn2c(=O)n1CCCCN1CCC(c2c[nH]c3ccc(F)cc23)CC1 |
| 879 nM | 71.5 nM | – | – | Cc1ccccc1-c1c(=O)n(CCCCN2CC=C(c3c[nH]c4ccc(Br)cc34)CC2)c(=O)n2ccccc12 |
| 88.6 nM | 15.9 nM | – | – | O=c1c(-c2ccccc2Cl)c2ccccn2c(=O)n1CCCCN1CCC(c2c[nH]c3ccc(F)cc23)CC1 |
| 774 nM | 74.4 nM | – | – | O=c1c(-c2ccccc2Cl)c2ccccn2c(=O)n1CCCCN1CC=C(c2c[nH]c3ccc(Cl)cc23)CC1 |
| 27.1 nM | 118 nM | 1.37 h | 63.4% | O=c1c(-c2ccccc2)c2ccccn2c(=O)n1CCCCN1CC=C(c2c[nH]c3ccc(F)cc23)CC1 |
| 27.4 nM | 38.5 nM | – | – | Cc1ccc(-c2c(=O)n(CCCCN3CCC(c4c[nH]c5ccc(F)cc45)CC3)c(=O)n3ccccc23)cc1 |
| 30.3 nM | 153 nM | – | – | Cc1ccc(-c2c(=O)n(CCCCN3CC=C(c4c[nH]c5ccc(F)cc45)CC3)c(=O)n3ccccc23)cc1 |
| 3.9 nM | 116 nM | – | – | O=c1c(-c2ccccc2F)c2ccccn2c(=O)n1CCCCN1CC=C(c2c[nH]c3ccc(F)cc23)CC1 |
| 5.2 nM | 127 nM | – | – | O=c1c(-c2ccccc2Cl)c2ccccn2c(=O)n1CCCCN1CC=C(c2c[nH]c3ccc(F)cc23)CC1 |
| 20.7 nM | 5.6 nM | – | – | COc1ccccc1-c1c(=O)n(CCCCN2CCC(c3c[nH]c4ccc(F)cc34)CC2)c(=O)n2ccccc12 |
| 1000 nM | 61.6 nM | – | – | O=c1c(-c2ccc(Cl)cc2)c2ccccn2c(=O)n1CCCCN1CC=C(c2c[nH]c3ccc(Br)cc23)CC1 |
| 840 nM | 40.1 nM | 1.37 h | 63.2% | O=c1c(-c2ccccc2)c2ccccn2c(=O)n1CCCCN1CC=C(c2c[nH]c3ccc(Br)cc23)CC1 |
| 404 nM | 79.1 nM | 1.03 h | 51.4% | O=c1c(-c2ccc(F)cc2)c2ccccn2c(=O)n1CCCCN1CC=C(c2c[nH]c3ccc(Br)cc23)CC1 |
| 836 nM | 32.5 nM | – | – | O=c1c(-c2ccccc2F)c2ccccn2c(=O)n1CCCCN1CC=C(c2c[nH]c3ccc(Br)cc23)CC1 |
| 312 nM | 278 nM | – | – | COc1ccc(-c2c(=O)n(CCCCN3CC=C(c4c[nH]c5ccc(Cl)cc45)CC3)c(=O)n3ccccc23)cc1 |
| 58.8 nM | 295 nM | 1.26 h | 60.5% | Cc1ccccc1-c1c(=O)n(CCCCN2CC=C(c3c[nH]c4ccc(F)cc34)CC2)c(=O)n2ccccc12 |

| Ki [1] | Ki [2] | half-life at 10 µM [3] | remaining at 1 h, 10 µM [4] | SMILES |
| --- | --- | --- | --- | --- |
| 11.3 nM | 220 nM | – | – | O=c1c(-c2ccc(F)cc2)c2ccccn2c(=O)n1CCCCN1CC=C(c2c[nH]c3ccc(F)cc23)CC1 |
| 435 nM | 97.1 nM | – | – | O=c1c(-c2ccccc2F)c2ccccn2c(=O)n1CCCCN1CC=C(c2c[nH]c3ccc(Cl)cc23)CC1 |
| 58.2 nM | 265 nM | 1 h | 50.2% | O=c1c(-c2ccc(Cl)cc2)c2ccccn2c(=O)n1CCCCN1CC=C(c2c[nH]c3ccc(F)cc23)CC1 |
| 718 nM | 97.8 nM | 1.13 h | 55.6% | COc1ccccc1-c1c(=O)n(CCCCN2CC=C(c3c[nH]c4ccc(Cl)cc34)CC2)c(=O)n2ccccc12 |
| 949 nM | 145 nM | – | – | Cc1ccc(-c2c(=O)n(CCCCN3CC=C(c4c[nH]c5ccc(Br)cc45)CC3)c(=O)n3ccccc23)cc1 |
| 740 nM | 212 nM | – | – | Cc1ccccc1-c1c(=O)n(CCCCN2CC=C(c3c[nH]c4ccc(Cl)cc34)CC2)c(=O)n2ccccc12 |
| 326 nM | 23.1 nM | – | – | COc1ccc(-c2c(=O)n(CCCCN3CC=C(c4c[nH]c5ccc(Br)cc45)CC3)c(=O)n3ccccc23)cc1 |
| 15.6 nM | 12.4 nM | – | – | O=c1c(-c2ccccc2)c2ccccn2c(=O)n1CCCCN1CCC(c2c[nH]c3ccc(F)cc23)CC1 |
| 20.8 nM | 251 nM | 1.57 h | 67.9% | COc1ccccc1-c1c(=O)n(CCCCN2CC=C(c3c[nH]c4ccc(F)cc34)CC2)c(=O)n2ccccc12 |
| 329 nM | 106 nM | – | – | O=c1c(-c2ccc(F)cc2)c2ccccn2c(=O)n1CCCCN1CC=C(c2c[nH]c3ccc(Cl)cc23)CC1 |
| 25.7 nM | 9.2 nM | – | – | O=c1c(-c2ccccc2F)c2ccccn2c(=O)n1CCCCN1CCC(c2c[nH]c3ccc(F)cc23)CC1 |
| 15.6 nM | 81.7 nM | – | – | COc1ccc(-c2c(=O)n(CCCCN3CC=C(c4c[nH]c5ccc(F)cc45)CC3)c(=O)n3ccccc23)cc1 |
| 25.5 nM | 84.4 nM | – | – | O=c1c(-c2ccc(Cl)cc2)c2ccccn2c(=O)n1CCCCN1CCC(c2c[nH]c3ccc(F)cc23)CC1 |
| 1200 nM | 33.1 nM | – | – | COc1ccccc1-c1c(=O)n(CCCCN2CC=C(c3c[nH]c4ccc(Br)cc34)CC2)c(=O)n2ccccc12 |
| 322 nM | 126 nM | – | – | O=c1c(-c2ccccc2)c2ccccn2c(=O)n1CCCCN1CC=C(c2c[nH]c3ccc(Cl)cc23)CC1 |
| 408 nM | 267 nM | 1.41 h | 64.3% | Cc1ccc(-c2c(=O)n(CCCCN3CC=C(c4c[nH]c5ccc(Cl)cc45)CC3)c(=O)n3ccccc23)cc1 |
